{"source": "patent US20110046482A1", "about": "“METHODS FOR REDUCING TOXICITIES ASSOCIATED WITH MEDICAL PROCEDURES EMPLOYING RADIOGRAPHIC CONTRAST AGENTS” (OREGON HEALTH & SCIENCE UNIVERSITY, priority 2006, published 2011)", "key": {"[1]": {"experiment": "N-acetylcysteine dose escalation, IV at time 0, 4 and 8 hours, followed for two weeks", "method": "Rats were given NAC IV at time 0, 4 hours, and 8 hours and were then followed for two weeks."}, "[2]": {"tested_on": "cisplatin-induced nephrotoxicity", "experiment": "Cisplatin (10 mg/kg IP) nephrotoxicity model, BUN, creatinine and weight 3 days after treatment", "assay_type": "in vivo", "settings": "rats", "method": "There are few animal models of contrast-induced nephropathy, and the reported models are not easily reproducible.\nRats were tested for renal toxicity 3 days after treatment by measuring serum concentrations of BUN and creatinine (CR)."}, "[3]": {"experiment": "Effect of route of administration on biodistribution of radiolabelled NAC", "assay_type": "in vivo", "settings": "rats", "method": "Radiolabelled NAC in combination with unlabeled NAC (140 mg/kg) was administered to rats with the following routes of infusion: IV; IA into the right carotid artery for brain infusion; aortic infusion (IA infusion via the left external carotid artery with left internal artery occlusion) to avoid brain infusion; and IA (right carotid) with osmotic Blood Brain Barrier Disruption (BBBD) to maximize delivery to the brain."}, "[4]": {"experiment": "Clearance of NAC, blood thiol concentration every 15 minutes by colorimetric kit", "assay_type": "in vivo", "settings": "rat, intravenous, other: IA into the descending aorta, IV or IA into the descending aorta, 140, 400, 1000 and 1200 mg/kg, all doses", "method": "NAC was administered either IV or IA into the descending aorta, and blood samples were assessed for thiol concentration every 15 minutes using a colorimetric kit. The NAC doses tested were 140, 400, 1000, and 1200 mg/kg."}, "[5]": {"tested_on": "cellular apoptosis proteins", "experiment": "NAC-mediated inhibition of cisplatin-induced apoptosis, Western Blot analysis", "assay_type": "cell-based", "method": "Thus, the ability of NAC to modulate cellular apoptosis proteins was evaluated by Western Blot analysis."}, "[6]": {"tested_on": "cumulative cisplatin nephrotoxicity", "experiment": "Multiple low dose cisplatin nephrotoxicity model", "assay_type": "in vivo", "settings": "rats"}, "[7]": {"experiment": "Blood/serum levels of NAC and thiols by HPLC after IV or PO NAC", "assay_type": "in vivo", "method": "NAC is known to enhance de novo glutathione synthesis, and may also impact levels of other thiols. […] In contrast to the IV results, the group given NAC 1200 mg/kg by the PO route had very low levels of serum NAC (0.12±0.12) at 15 min or 60 min after infusion."}, "[8]": {"tested_on": "cisplatin nephrotoxicity", "experiment": "Cisplatin nephrotoxicity after NAC IV, PO or IA in the descending aorta", "assay_type": "in vivo", "settings": "rats", "method": "IV NAC was nephroprotective at a dose of 400 mg/kg but not at a lower dose of 50 mg/kg."}, "[9]": {"settings": "cisplatin 10 mg/kg IP + NAC 400 mg/kg IP"}, "[10]": {"settings": "cisplatin 10 mg/kg IP + NAC 400 mg/kg PO"}}}
{"smiles": "CC(=O)N[C@@H](CS)C(=O)O", "note": "[NAC, N-acetylcysteine]", "values": [{"measurement": "safety/tolerability", "setting": "[1]; rat, in vivo, iv, 1200 mg/kg", "result": "safe and well-tolerated"}, {"measurement": "weight loss and signs of toxicity", "setting": "[1]; rat, in vivo, iv, 1200 mg/kg", "result": "no weight loss and no signs of toxicity"}, {"measurement": "tolerability of infusions", "setting": "[1]; rat, in vivo, iv, 1500 mg/kg", "result": "tolerated the infusions well"}, {"measurement": "loss of body weight", "setting": "[1]; rats, NAC IV 1500 mg/kg×3 (0, 4, 8 hours), within 2-3 days of infusion", "result": "5%-10%"}, {"measurement": "BUN", "setting": "[2]; [9]", "result": "131.8 ± 8.2", "unit": "mg/dL"}, {"measurement": "CR (creatinine)", "setting": "[2]; [9]", "result": "2.3±0.38"}, {"measurement": "BUN", "setting": "[2]; cisplatin 10 mg/kg IP + NAC 400 mg/kg IV, p<0.0001", "result": "26.33 ± 6.76", "unit": "mg/dL"}, {"measurement": "CR (creatinine)", "setting": "[2]; cisplatin 10 mg/kg IP + NAC 400 mg/kg IV, p<0.0013", "result": "0.47±0.15"}, {"measurement": "BUN", "setting": "[2]; [10]", "result": "123.3 ± 8.2", "unit": "mg/dL"}, {"measurement": "CR (creatinine)", "setting": "[2]; [10]", "result": "1.77±0.21"}, {"measurement": "percent weight loss over the test period versus the other groups", "setting": "[2]; cisplatin + IV NAC, p<0.0001", "result": "significantly lower percent weight loss"}, {"measurement": "radiolabel in brain", "setting": "[3]; NAC 140 mg/kg, IA right carotid artery", "result": "high levels of radiolabel in the right cerebral hemisphere"}, {"measurement": "radiolabel in right cerebral hemisphere relative to IA without BBBD", "setting": "[3]; NAC 140 mg/kg, IA right carotid with osmotic BBBD", "result": "doubled"}, {"measurement": "brain delivery of NAC", "setting": "[3]; NAC 140 mg/kg, aortic infusion", "result": "negligible levels"}, {"measurement": "delivery to kidney", "setting": "[3]; NAC 140 mg/kg, aortic infusion", "result": "increased systemic delivery to kidney"}, {"measurement": "amount of NAC found in the brain", "setting": "[3]; radiolabelled + unlabeled NAC 140 mg/kg, IV", "result": "negligible amounts"}, {"measurement": "half-life", "setting": "[4]", "result": "< 15", "unit": "min"}, {"measurement": "protection against cisplatin cytotoxicity", "setting": "[5]; NAC 8 hours after cisplatin", "result": "minimal"}, {"measurement": "effect on cytotoxic effects of cisplatin (apoptosis proteins)", "setting": "[5]; NAC added concurrent with cisplatin or up to 2 hours after", "result": "reversed the cytotoxic effects of cisplatin"}, {"measurement": "protection against cisplatin cytotoxicity", "setting": "[5]; NAC delayed more than 2 hours", "result": "protection was reduced"}, {"measurement": "protection against nephrotoxicity", "setting": "[6]; NAC 800 mg/kg IP 30 minutes before each cisplatin treatment", "result": "no protective effect"}, {"measurement": "protection against nephrotoxicity", "setting": "[6]; NAC 800 mg/kg IV 30 minutes before each cisplatin treatment", "result": "protective against the cumulative nephrotoxicity"}, {"measurement": "blood level of NAC (mean)", "setting": "[7]; IV 100 mg/kg", "result": "0.38 ± 0.16", "unit": "mM"}, {"measurement": "blood level of NAC (mean)", "setting": "[7]; IV 400 mg/kg", "result": "2.19 ± 0.19", "unit": "mM"}, {"measurement": "blood level of NAC (mean)", "setting": "[7]; IV 1200 mg/kg", "result": "6.22 ± 0.18", "unit": "mM"}, {"measurement": "serum concentration of metabolite oxidized NAC relative to NAC alone", "setting": "[7]; IV, 15 min after administration", "result": "approximately double"}, {"measurement": "serum NAC level", "setting": "[7]; PO 1200 mg/kg, at 15 min or 60 min after infusion", "result": "0.12 ± 0.12", "unit": "mM"}, {"measurement": "nephroprotection", "setting": "[8]; NAC 50 mg/kg IA in the descending aorta", "result": "significant nephroprotection"}, {"measurement": "nephroprotection", "setting": "[8]; NAC 50 mg/kg IV", "result": "not nephroprotective"}, {"measurement": "nephroprotection", "setting": "[8]; NAC 400 mg/kg IV", "result": "nephroprotective"}, {"measurement": "protection against cisplatin nephrotoxicity", "setting": "[8]; NAC 400 mg/kg PO via nasogastric tube, cisplatin 10 mg/m^2", "result": "not protective"}, {"measurement": "time to renal failure", "setting": "[8]; NAC 400 mg/kg PO, cisplatin 10 mg/m^2", "result": "≤ 3", "unit": "days"}]}
